{
  "source": "patent US5358947A",
  "about": "“Angiotensin II receptor blocking 2,3-substituted pyrazolo[1,5-a]-1,3,5-triazin-4(3H)-ones” (American Cyanamid Company, priority 1993, dated 1994)",
  "tested_on": "ANGIOTENSIN II (AII) VASOPRESSOR RESPONSE",
  "assay": "AII Challenge: angiotensin II (AII) vasopressor response in conscious rats",
  "type": "in vivo",
  "set-up": "Response After AII / Change / Average Change: unit not given here",
  "conditions": "10 mg/kg i.v.; for Response After AII / Change / Control Before AII: individual rat; for Control Before AII: in mmHg (unit assumed); for % Inhibition / Average Change: n = 2",
  "in_short": "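Conscious male Okamoto-Aoki SHR (16-20 weeks, ~330 g), aorta/vena cava cannulated, challenged with AII 0.05 and 0.1 ug/kg i.v. before and at 30-300 min after compound dosed i.v., i.p. or orally. Systolic pressure rise expressed relative to each rat's predose response (100%).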",
  "key": {"[1]": {"conditions": "AII 0.05 mcg/kg, 30 min post dose"}, "[2]": {"conditions": "AII 0.05 mcg/kg, 30 min post dose, listed as Ex. 21, potassium salt"}, "[3]": {"conditions": "AII 0.05 mcg/kg, 60 min post dose, listed as Ex. 21, potassium salt"}, "[4]": {"conditions": "AII 0.05 mcg/kg, 90 min post dose, listed as Ex. 21, potassium salt"}, "[5]": {"conditions": "AII 0.05 mcg/kg, 120 min post dose, listed as Ex. 21, potassium salt"}, "[6]": {"conditions": "AII 0.05 mcg/kg, 180 min post dose, listed as Ex. 21, potassium salt"}, "[7]": {"conditions": "AII 0.05 mcg/kg, 240 min post dose, listed as Ex. 21, potassium salt"}, "[8]": {"conditions": "AII 0.05 mcg/kg, 300 min post dose, listed as Ex. 21, potassium salt"}, "[9]": {"conditions": "AII 0.1 mcg/kg, 30 min post dose"}, "[10]": {"conditions": "AII 0.1 mcg/kg, 30 min post dose, listed as Ex. 21, potassium salt"}, "[11]": {"conditions": "AII 0.1 mcg/kg, 60 min post dose, listed as Ex. 21, potassium salt"}, "[12]": {"conditions": "AII 0.1 mcg/kg, 90 min post dose, listed as Ex. 21, potassium salt"}, "[13]": {"conditions": "AII 0.1 mcg/kg, 120 min post dose, listed as Ex. 21, potassium salt"}, "[14]": {"conditions": "AII 0.1 mcg/kg, 180 min post dose, listed as Ex. 21, potassium salt"}, "[15]": {"conditions": "AII 0.1 mcg/kg, 240 min post dose, listed as Ex. 21, potassium salt"}, "[16]": {"conditions": "AII 0.1 mcg/kg, 300 min post dose, listed as Ex. 21, potassium salt"}},
  "note": "Where “and” joins values, the source holds several entries; their conditions need not be identical. Identical values can stand only once. Counter-ions that a name gives are not always drawn.",
  "data": [
    {"molecule": "CCCCc1nc2ccnn2c(=O)n1Cc1ccc(-c2ccccc2-c2nn[nH]n2)cc1", "note": "[Example 21, 2-Butyl-3-[[2'-(1H-tetrazol-5-yl)-[[1,1'-biphenyl]-4-yl]methyl]-pyrazolo[1,5-a]-1,3,5-triazin-4(3H)-one potassium salt]", "values": [
      {"measurement": "Response After AII", "setting": "[1]", "result": 220},
      {"measurement": "Change", "setting": "[2]", "result": "5 and 25"},
      {"measurement": "Response After AII", "setting": "[2]", "result": 225},
      {"measurement": "Control Before AII", "setting": "[2]", "result": "215 and 200"},
      {"measurement": "% Inhibition", "setting": "[1]", "result": 65, "unit": "%"},
      {"measurement": "Average Change", "setting": "[1]", "result": 15},
      {"measurement": "Change", "setting": "[3]", "result": "25 and 40"},
      {"measurement": "Response After AII", "setting": "[3]", "result": "235 and 250"},
      {"measurement": "Control Before AII", "setting": "[3]", "result": 210},
      {"measurement": "% Inhibition", "setting": "[3]", "result": 24, "unit": "%"},
      {"measurement": "Average Change", "setting": "[3]", "result": 32.5},
      {"measurement": "Change", "setting": "[4]", "result": 20},
      {"measurement": "Response After AII", "setting": "[4]", "result": "230 and 260"},
      {"measurement": "Control Before AII", "setting": "[4]", "result": "210 and 240"},
      {"measurement": "% Inhibition", "setting": "[4]", "result": 53, "unit": "%"},
      {"measurement": "Average Change", "setting": "[4]", "result": 20},
      {"measurement": "Control Before AII", "setting": "AII 0.05 mcg/kg, 120 min post dose", "result": 220},
      {"measurement": "Change", "setting": "[5]", "result": "20 and 30"},
      {"measurement": "Response After AII", "setting": "[5]", "result": "240 and 255"},
      {"measurement": "Control Before AII", "setting": "[5]", "result": 225},
      {"measurement": "% Inhibition", "setting": "[5]", "result": 41, "unit": "%"},
      {"measurement": "Average Change", "setting": "[5]", "result": 25},
      {"measurement": "Change", "setting": "[6]", "result": "21 and 45"},
      {"measurement": "Response After AII", "setting": "[6]", "result": "245 and 255"},
      {"measurement": "Control Before AII", "setting": "[6]", "result": "224 and 210"},
      {"measurement": "% Inhibition", "setting": "[6]", "result": 22, "unit": "%"},
      {"measurement": "Average Change", "setting": "[6]", "result": 33},
      {"measurement": "Change", "setting": "[7]", "result": "25 and 35"},
      {"measurement": "Response After AII", "setting": "[7]", "result": "245 and 250"},
      {"measurement": "Control Before AII", "setting": "[7]", "result": "220 and 215"},
      {"measurement": "% Inhibition", "setting": "[7]", "result": 29, "unit": "%"},
      {"measurement": "Average Change", "setting": "[7]", "result": 30},
      {"measurement": "Change", "setting": "[8]", "result": "31 and 40"},
      {"measurement": "Response After AII", "setting": "[8]", "result": "245 and 250"},
      {"measurement": "Control Before AII", "setting": "[8]", "result": "214 and 210"},
      {"measurement": "% Inhibition", "setting": "[8]", "result": 16, "unit": "%"},
      {"measurement": "Average Change", "setting": "[8]", "result": 35.5},
      {"measurement": "Response After AII", "setting": "[9]", "result": 230},
      {"measurement": "Change", "setting": "[10]", "result": "15 and 30"},
      {"measurement": "Response After AII", "setting": "[10]", "result": 225},
      {"measurement": "Control Before AII", "setting": "[10]", "result": "210 and 200"},
      {"measurement": "% Inhibition", "setting": "[9]", "result": 58, "unit": "%"},
      {"measurement": "Average Change", "setting": "[9]", "result": 22.5},
      {"measurement": "Change", "setting": "[11]", "result": "20 and 30"},
      {"measurement": "Response After AII", "setting": "[11]", "result": "245 and 255"},
      {"measurement": "Control Before AII", "setting": "[11]", "result": 225},
      {"measurement": "% Inhibition", "setting": "[11]", "result": 53, "unit": "%"},
      {"measurement": "Average Change", "setting": "[11]", "result": 25},
      {"measurement": "Change", "setting": "[12]", "result": "30 and 35"},
      {"measurement": "Response After AII", "setting": "[12]", "result": "245 and 260"},
      {"measurement": "Control Before AII", "setting": "[12]", "result": "215 and 225"},
      {"measurement": "% Inhibition", "setting": "[12]", "result": 39, "unit": "%"},
      {"measurement": "Average Change", "setting": "[12]", "result": 32.5},
      {"measurement": "Change", "setting": "[13]", "result": "35 and 40"},
      {"measurement": "Response After AII", "setting": "[13]", "result": "255 and 265"},
      {"measurement": "Control Before AII", "setting": "[13]", "result": "220 and 225"},
      {"measurement": "% Inhibition", "setting": "[13]", "result": 30, "unit": "%"},
      {"measurement": "Average Change", "setting": "[13]", "result": 37.5},
      {"measurement": "Control Before AII", "setting": "AII 0.1 mcg/kg, 180 min post dose", "result": 240},
      {"measurement": "Change", "setting": "[14]", "result": "30 and 35"},
      {"measurement": "Response After AII", "setting": "[14]", "result": "255 and 275"},
      {"measurement": "Control Before AII", "setting": "[14]", "result": 225},
      {"measurement": "% Inhibition", "setting": "[14]", "result": 39, "unit": "%"},
      {"measurement": "Average Change", "setting": "[14]", "result": 32.5},
      {"measurement": "Change", "setting": "[15]", "result": 40},
      {"measurement": "Response After AII", "setting": "[15]", "result": "265 and 260"},
      {"measurement": "Control Before AII", "setting": "[15]", "result": "225 and 220"},
      {"measurement": "% Inhibition", "setting": "[15]", "result": 25, "unit": "%"},
      {"measurement": "Average Change", "setting": "[15]", "result": 40},
      {"measurement": "Change", "setting": "[16]", "result": "50 and 60"},
      {"measurement": "Response After AII", "setting": "[16]", "result": "265 and 280"},
      {"measurement": "Control Before AII", "setting": "[16]", "result": "215 and 220"},
      {"measurement": "% Inhibition", "setting": "[16]", "result": -3, "unit": "%"},
      {"measurement": "Average Change", "setting": "[16]", "result": 55}
    ]}
  ]
}
